Here are results for 33 compounds from article PMC8286840, “Identifying SARS-CoV-2 antiviral compounds by screening for small molecule inhibitors of Nsp3 papain-like protease” (Biochemical Journal, 2021).

Where a name gives a salt, the structure may show the parent alone. Read-outs that look alike come from different tables or passages of the source.

The target in test [1] is T1, SARS-CoV-2 PLpro (nsp3 1564–1878) (Severe acute respiratory syndrome coronavirus 2, UniProt P0DTD1). Kind of test: biochemical. On the set-up: FRET-quenched peptide (Pro3) cleavage by PLpro, 10 min pre-incubation, slope over 20 min, normalised to no-compound control. As to conditions: read-out: % of control remaining.
In test [2] the target is T1, SARS-CoV-2 PLpro (nsp3 1564–1878). Kind of test: biochemical. As to conditions: read-out: % of control remaining. Further details: FRET-quenched peptide (Pro3) cleavage by PLpro, 10 min pre-incubation, slope over 20 min, normalised to no-compound control. The source holds these as a separate data set.

As for `Cn1cc(/C=C2\C(=O)Nc3ccc(S(N)(=O)=O)cc32)c2ccccc21` [Syk Inhibitor], in test [1] (Well no.=2595, low concentration screen), the remaining activity at 1.25 µM worked out at 96.8%. Further, in test [2] (Well no.=2595, high concentration screen), the remaining activity at 3.75 µM is 96.7%.

On to `CNCC(O)c1ccc(O)cc1` (centres unmarked) [Synephrine (hydrochloride)], for which the remaining activity at 1.25 µM in test [1] (Well no.=6699, low concentration screen) was found to be 100%. For the same compound, the remaining activity at 3.75 µM in test [2] (Well no.=6699, high concentration screen) came to 101%.

Take `CNCC(O)c1ccc(O)cc1` (centres unmarked) [Synephrine HCl]: in test [1] (Well no.=4900, low concentration screen), the remaining activity at 1.25 µM was found to be 95.6%. For the same compound, the remaining activity at 3.75 µM in test [2] (Well no.=4900, high concentration screen) was 91.7%.

With `CCOC(=O)Oc1c(OC)cc(C(=O)O[C@@H]2C[C@@H]3CN4CCc5c([nH]c6cc(OC)ccc56)[C@H]4C[C@@H]3[C@H](C(=O)OC)[C@H]2OC)cc1OC` [Syrosingopine], in test [1] (Well no.=3310, low concentration screen), the remaining activity at 1.25 µM came out at 100%. Also, the remaining activity at 3.75 µM in test [2] (Well no.=3310, high concentration screen) turned out to be 98.6%.

On to `Cc1cc(C(=O)Nc2cccc(C(=O)Nc3cccc(C(F)(F)F)c3)c2)on1` [T56-LIMKi], for which the remaining activity at 1.25 µM in test [1] (Well no.=5920, low concentration screen) was 101%. For the same compound, the remaining activity at 3.75 µM in test [2] (Well no.=5920, high concentration screen) worked out at 98.1%.

As to `O=C(Nc1ccncc1)c1cc([N+](=O)[O-])ccc1Cl` [T0070907], the remaining activity at 1.25 µM in test [1] (Well no.=4833, low concentration screen) was 103%. In addition, the remaining activity at 3.75 µM in test [2] (Well no.=4833, high concentration screen) was determined as 106%.

`COC(=O)c1c(-c2cc(OC)c(OC)c(OC)c2)c2ccnc(OCc3ncccn3)c2c(=O)n1Cc1ccnc(C)c1` [T-0156]: in test [1] (Well no.=1230, low concentration screen), the remaining activity at 1.25 µM was 102%. Further, in test [2] (Well no.=1230, high concentration screen), the remaining activity at 3.75 µM was found to be 102%.

For the compound `COc1cn(-c2ccc(-n3cccn3)cc2F)nc(-c2ccnn2-c2ccccc2)c1=O` [TAK-063], the remaining activity at 1.25 µM in test [1] (Well no.=8728, low concentration screen) was 98.2%. Besides, in test [2] (Well no.=8728, high concentration screen), the remaining activity at 3.75 µM was found to be 94.2%.

For the compound `CC(=O)N1CCC(C(=O)N(CCCN2CCC(Cc3ccc(C(N)=O)cc3)CC2)c2ccc(C)c(Cl)c2)CC1` [TAK-220], the remaining activity at 1.25 µM in test [1] (Well no.=8363, low concentration screen) was found to be 94.6%. The remaining activity at 3.75 µM in test [2] (Well no.=8363, high concentration screen) turned out to be 92.9%.

On to `NS(=O)(=O)OC[C@H]1C[C@@H](Nc2ccnc3cc(-c4cccc(SC(F)(F)F)c4)nn23)[C@H](O)[C@@H]1O` [TAK-243], for which the remaining activity at 1.25 µM in test [1] (Well no.=7078, low concentration screen) worked out at 102%. In test [2] (Well no.=7078, high concentration screen), the remaining activity at 3.75 µM turned out to be 97%.

As for `CC(C)(O)CC(=O)NCCn1ccc2ncnc(Nc3ccc(Oc4cccc(C(F)(F)F)c4)c(Cl)c3)c21` [TAK-285], in test [1] (Well no.=4743, low concentration screen), the remaining activity at 1.25 µM is 102%. In addition, in test [2] (Well no.=4743, high concentration screen), the remaining activity at 3.75 µM worked out at 104%.

As for `CNCc1cc(-c2ccccc2F)n(S(=O)(=O)c2cccnc2)c1` [TAK-438], the remaining activity at 1.25 µM in test [1] (Well no.=4794, low concentration screen) was found to be 91.8%. Also, the remaining activity at 3.75 µM in test [2] (Well no.=4794, high concentration screen) was 93%.

In the case of `CNC(=O)c1ccc2cc([C@@]3(O)CCn4cncc43)ccc2c1` [TAK-700 (Orteronel)], the remaining activity at 1.25 µM in test [1] (Well no.=4725, low concentration screen) came out at 98.2%. For the same compound, in test [2] (Well no.=4725, high concentration screen), the remaining activity at 3.75 µM stood at 96.7%.

For the compound `CCc1nc(-c2cccc(C)c2)c(-c2ccnc(NC(=O)c3ccccc3)c2)s1` [TAK-715], in test [1] (Well no.=2751, low concentration screen), the remaining activity at 1.25 µM worked out at 99.2%. In test [2] (Well no.=2751, high concentration screen), the remaining activity at 3.75 µM stood at 104%.

With `Cn1c(=O)c(F)c(Nc2ccc(I)cc2F)c2c(=O)n(C[C@@H](O)CO)cnc21` [TAK-733], in test [1] (Well no.=4954, low concentration screen), the remaining activity at 1.25 µM turned out to be 101%. The remaining activity at 3.75 µM in test [2] (Well no.=4954, high concentration screen) amounted to 97.8%.

For the compound `Cc1ccc(-c2ccc3c(c2)C=C(C(=O)Nc2ccc(C[N+](C)(C)C4CCOCC4)cc2)CCC3)cc1` [TAK-779], the remaining activity at 1.25 µM in test [1] (Well no.=8357, low concentration screen) was 102%. The remaining activity at 3.75 µM in test [2] (Well no.=8357, high concentration screen) is 101%.

As for `Cc1cc(OCCCS(C)(=O)=O)cc(C)c1-c1cccc(COc2ccc3c(c2)OC[C@H]3CC(=O)O)c1` [TAK-875], the remaining activity at 1.25 µM amounted to 96.6% in test [1] (Well no.=4966, low concentration screen) and 107% in test [1] (Well no.=7771, low concentration screen). The remaining activity at 3.75 µM in test [2] (Well no.=4966, high concentration screen) is 91.6%; in test [2] (Well no.=7771, high concentration screen), 103%.

With `CCS(=O)(=O)c1cccc(-c2cc(C(=O)NC3CCN(C)CC3)c(C)c3[nH]c4ncc(C)cc4c23)c1` [TAK-901], in test [1] (Well no.=4691, low concentration screen), the remaining activity at 1.25 µM was found to be 96.9%. The remaining activity at 3.75 µM in test [2] (Well no.=4691, high concentration screen) turned out to be 100%.

Take `Brc1c(Br)c(Br)c2n[nH]nc2c1Br` [TBB - 4,5,6,7-Tetrabromobenzotriazole]: the remaining activity at 1.25 µM in test [1] (Well no.=2494, low concentration screen) turned out to be 100%. Further, the remaining activity at 3.75 µM in test [2] (Well no.=2494, high concentration screen) was found to be 103%.

In the case of `O=C1OC(/C=C/c2ccccc2)=NC/1=C/c1cccnc1` [TC-DAPK 6], the remaining activity at 1.25 µM in test [1] (Well no.=6734, low concentration screen) came to 96.1%. The remaining activity at 3.75 µM in test [2] (Well no.=6734, high concentration screen) is 90.3%.

On to `CNc1nc(NCc2ccc(NS(C)(=O)=O)cc2Cl)cc(-c2ccccn2)n1` [TC-G-1008], for which the remaining activity at 1.25 µM in test [1] (Well no.=7769, low concentration screen) amounted to 98.1%. The remaining activity at 3.75 µM in test [2] (Well no.=7769, high concentration screen) came out at 95.1%.

`Nc1nccc(/C=C/c2ccccc2)n1` [TCN238]: in test [1] (Well no.=7855, low concentration screen), the remaining activity at 1.25 µM is 99.5%. For the same compound, the remaining activity at 3.75 µM in test [2] (Well no.=7855, high concentration screen) stood at 94.5%.

As for `O=C(NNC(=O)c1ccc(CNS(=O)(=O)c2ccc(F)c(Cl)c2)cc1)c1ccccc1` [TCN-201], in test [1] (Well no.=5514, low concentration screen), the remaining activity at 1.25 µM is 96.4%. Moreover, in test [2] (Well no.=5514, high concentration screen), the remaining activity at 3.75 µM was found to be 97.4%.

`Clc1cnc(Oc2ccc(Oc3ncc(Cl)cc3Cl)cc2)c(Cl)c1` [TCPOBOP]: in test [1] (Well no.=1425, low concentration screen), the remaining activity at 1.25 µM was 102%. Moreover, the remaining activity at 3.75 µM in test [2] (Well no.=1425, high concentration screen) turned out to be 102%.

As to `COc1ccc(C(=O)Nc2sc3c(c2C(N)=O)CCCC3)cc1OC` [TCS 359 - 2-[(3,4-Dimethoxybenzoyl)amino]-4,5,6,7-benzo[b]thiophene-3-carboxamide], the remaining activity at 1.25 µM in test [1] (Well no.=2580, low concentration screen) was determined as 93.7%. Moreover, the remaining activity at 3.75 µM in test [2] (Well no.=2580, high concentration screen) is 90%.

On to `Cn1c(SCC(=O)N2CCC[C@H]2C(=O)Nc2ccccc2-c2ccccc2)nc2ccccc21` [TCS 1102], for which the remaining activity at 1.25 µM in test [1] (Well no.=8429, low concentration screen) stood at 98.6%. Besides, the remaining activity at 3.75 µM in test [2] (Well no.=8429, high concentration screen) stood at 98.6%.

Consider `COc1cc2c(cc1OC)CN(C(=O)[C@@H](NCc1ccncc1)C(C)(C)C)CC2` [TCS-OX2-29], for which, in test [1] (Well no.=6993, low concentration screen), the remaining activity at 1.25 µM is 107%. For the same compound, the remaining activity at 3.75 µM in test [2] (Well no.=6993, high concentration screen) was found to be 101%.

Consider `CC1(C)CC(O)CC(C)(C)N1[O]` [TEMPOL], for which the remaining activity at 1.25 µM in test [1] was found to be 93.1%. In test [2], the remaining activity at 3.75 µM turned out to be 95.9%.

In the case of `CC1(C)CCCC(C)(C)N1[O]` [TEMPO], the remaining activity at 1.25 µM in test [1] amounted to 95.5%. The remaining activity at 3.75 µM in test [2] amounted to 99.1%.

On to `CCSC(N)=Nc1ccc(C(F)(F)F)cc1` [TFPI hydrochloride], for which, in test [1] (Well no.=1389, low concentration screen), the remaining activity at 1.25 µM stood at 95.8%. Moreover, the remaining activity at 3.75 µM in test [2] (Well no.=1389, high concentration screen) worked out at 93.8%.

With `Nc1nc(N)c2nc(-c3cccc(O)c3)c(-c3cccc(O)c3)nc2n1` [TG100-115], in test [1] (Well no.=4846, low concentration screen), the remaining activity at 1.25 µM amounted to 99.1%. In addition, in test [2] (Well no.=4846, high concentration screen), the remaining activity at 3.75 µM was 99.1%.

Take `Cc1cnc(Nc2ccc(N3CCN(C)CC3)cc2)nc1Nc1cccc(S(=O)(=O)NC(C)(C)C)c1` [TG101209]: the remaining activity at 1.25 µM in test [1] (Well no.=2805, low concentration screen) is 94%. Moreover, the remaining activity at 3.75 µM in test [2] (Well no.=2805, high concentration screen) came to 96.7%.

For `Cc1cnc(Nc2ccc(OCCN3CCCC3)cc2)nc1Nc1cccc(S(=O)(=O)NC(C)(C)C)c1` [TG101348], in test [1] (Well no.=2853, low concentration screen), the remaining activity at 1.25 µM came out at 95.4%. In test [2] (Well no.=2853, high concentration screen), the remaining activity at 3.75 µM was 98.3%.
